The results in this text go back to ChEMBL document CHEMBL1201862, “PubChem BioAssay data set” (2004).

Holding throughout (assay): NCI anticancer screen, dose series, 48 h
Experiment [1] has as its system CAKI-1.
Experiment [2] deals with NCI-H23.
In experiment [3] the test system is 786-0.
Experiment [4] has as its system ACHN.
For experiment [5], the system named is A549.
The subject of experiment [6] is A498.
Experiment [7] relates to HT-29.
Experiment [8] deals with KM12.
For experiment [9], the system named is COLO 205.
Experiment [10] concerns UACC-62.
In experiment [11] the test system is OVCAR-8.
For experiment [12], the system named is HCC 2998.
Experiment [13] relates to SN12C.
Experiment [14] deals with EKVX.
Experiment [15] relates to Malme-3M.
Experiment [16] relates to SW-620.
Experiment [17] relates to SNB-19.
Experiment [18] concerns SK-MEL-5.
For experiment [19], the system named is T47D.
For experiment [20], the system named is PC-3.

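48-hour exposure; five concentrations; linearly interpolated endpoints. Here, GI50 denotes the concentration required for 50% inhibition of growth.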 Calls of active or inactive are those of the source. Cut-off read from the data, not from the text of the source: active = GI50 up to about 1.1 µM and inactive = higher.

Regarding `CCC(=O)OC1CCn2c1nc1c2C(=O)C(C)=C(NC(C)=O)C1=N` (centres undefined), the GI50 in [1] was 0.653 µM (active); in experiment [2] it was 1.77 µM (inactive); in experiment [3], 2.43 µM (inactive); in [4] it was 1.77 µM (inactive); in experiment [5], 3.02 µM (inactive); in [6] it was 1.82 µM (inactive). Besides, the GI50 in experiment [7] was 1.61 µM (inactive); in experiment [8], 2.11 µM (inactive); in experiment [9], 1.72 µM (inactive); in experiment [10] it was 1.32 µM (inactive); in experiment [11], 1.04 µM (active); in experiment [12], 3.4 µM (inactive). Moreover, the GI50 in [13] is 1.6 µM (inactive); in [14], 2.63 µM (inactive); in experiment [15], 1.43 µM (inactive); in experiment [16], 0.916 µM (active); in experiment [17], 5.26 µM (inactive); in experiment [18] it was 1.29 µM (inactive).

Regarding `FC(F)(F)c1ccc2nc(Sc3ccc4ccccc4c3)cnc2c1`, the GI50 in experiment [1] was 50.2 µM (inactive); in experiment [2], 41.9 µM (inactive); in [3], 40.5 µM (inactive); in [4], > 100 µM (inactive); in experiment [5] it was > 100 µM (inactive); in [6], 28.6 µM (inactive). Further, the GI50 is 87.3 µM (inactive) in [7]; > 100 µM (inactive) in experiment [8]; 75 µM (inactive) in experiment [9]; 23.1 µM (inactive) in experiment [19]; 64.9 µM (inactive) in experiment [10]; > 100 µM (inactive) in experiment [11]. The GI50 in experiment [12] is 52 µM (inactive); in experiment [13], 73.8 µM (inactive); in [14], 94 µM (inactive); in [15] it was > 100 µM (inactive); in [16] it was 77.4 µM (inactive); in experiment [17], > 100 µM (inactive). The GI50 in experiment [18] was 28.1 µM (inactive).

Regarding `CCCCC(C)(C/C=C/[C@@H]1[C@@H](C(O)CCCCCC(=O)OC)C(=O)C[C@H]1O[Si](C)(C)C(C)(C)C)O[Si](C)(C)C` (some centres undefined), the GI50 is 38.4 µM (inactive) in experiment [1]; > 100 µM (inactive) in experiment [2]; > 100 µM (inactive) in experiment [3]; 86.5 µM (inactive) in experiment [4]; 70.8 µM (inactive) in experiment [5]; 78.5 µM (inactive) in [7]. Further, the GI50 is 34.9 µM (inactive) in [20]; 58.3 µM (inactive) in experiment [8]; > 100 µM (inactive) in [9]; 91.8 µM (inactive) in experiment [10]; > 100 µM (inactive) in [11]; > 100 µM (inactive) in experiment [12]. The GI50 was > 100 µM (inactive) in experiment [13]; > 100 µM (inactive) in experiment [14]; > 100 µM (inactive) in [15]; 59.3 µM (inactive) in [16]; > 100 µM (inactive) in [17]; 92.7 µM (inactive) in [18].

Take `O=C1/C(=C/c2cccc3ccccc23)Cc2ccccc21`: the GI50 was 25.6 µM (inactive) in [1]; 17.1 µM (inactive) in experiment [2]; 20.4 µM (inactive) in experiment [3]; 36.5 µM (inactive) in experiment [4]; 38.4 µM (inactive) in experiment [5]; 37 µM (inactive) in [6]. The GI50 in [7] is 32.7 µM (inactive); in experiment [20], 16.9 µM (inactive); in experiment [8], 35.9 µM (inactive); in experiment [10] it was 22.4 µM (inactive); in [11] it was 53.8 µM (inactive); in experiment [12], 15.5 µM (inactive). Further, the GI50 in experiment [13] was 49.5 µM (inactive); in experiment [14], 26.3 µM (inactive); in [16], 31.6 µM (inactive); in experiment [17], 17.9 µM (inactive); in experiment [18] it was 29.9 µM (inactive).

Regarding `COc1cc(C2SCC(=O)N2NC(=O)c2ccc(NC(C)=O)cc2)cc(OC)c1OC` (centres undefined), the GI50 in experiment [2], in experiment [3], in experiment [4], in [5], in experiment [6] and in experiment [7] was > 100 µM (inactive) in each case. Also, the GI50 in experiment [8], in [9], in [19], in [10], in [11] and in experiment [12] was > 100 µM (inactive) throughout. Besides, the GI50 in [13], in [14], in experiment [16], in [17] and in [18] was > 100 µM (inactive) throughout.

In the case of `CCOC(=O)/C(C#N)=C(O)/C(=C\c1ccc(Br)cc1)NC(=O)c1ccccc1`, the GI50 in [1], in experiment [2], in [3], in experiment [4], in experiment [5] and in experiment [6] was > 100 µM (inactive) throughout. The GI50 in experiment [7], in experiment [8], in experiment [9], in experiment [10], in experiment [11] and in experiment [12] was > 100 µM (inactive) in each case. In addition, the GI50 in experiment [13] is > 100 µM (inactive); in [14] it was > 100 µM (inactive); in experiment [15], > 100 µM (inactive); in experiment [16] it was 19.2 µM (inactive); in [17], > 100 µM (inactive); in experiment [18] it was > 100 µM (inactive).

Turning to `COC(=O)c1c2cccccc-2c(Cc2c3cccccc-3c(C(=O)OC)c2O)c1O`, the GI50 in experiment [1], in experiment [2], in [3], in [4], in experiment [5] and in [6] was > 100 µM (inactive) throughout. In addition, the GI50 in [7], in experiment [8], in experiment [9], in [10], in experiment [11] and in experiment [12] was > 100 µM (inactive) each time. The GI50 in [13], in experiment [14], in experiment [15], in [16], in [17] and in [18] was > 100 µM (inactive) throughout.

Consider `COC(=O)C1(C(=O)OC)CC2=C(S(=O)(=O)c3ccccc3)C[C@@H](C#N)[C@H]2C1`, for which the GI50 in [1], in experiment [2], in experiment [3], in [4], in [5] and in experiment [6] was > 100 µM (inactive) throughout. In addition, the GI50 in experiment [7] was > 100 µM (inactive); in [20], > 100 µM (inactive); in [8], > 100 µM (inactive); in experiment [9], > 100 µM (inactive); in experiment [11], > 100 µM (inactive); in experiment [12], 16 µM (inactive). In addition, the GI50 in experiment [13], in experiment [14], in experiment [15], in experiment [16], in [17] and in experiment [18] was > 100 µM (inactive) each time.

For the molecule `CCOc1cc2c(cc1OC)c[n+](C)c1c3cc(OC)c(OC)cc3ccc21`, the GI50 in experiment [1] was > 67.8 µM (inactive); in [2], > 93.5 µM (inactive); in experiment [3] it was > 42.1 µM (inactive); in experiment [4] it was > 100 µM (inactive); in [5], > 100 µM (inactive); in experiment [6], 47.6 µM (inactive). For the same molecule, the GI50 in [7] is > 100 µM (inactive); in experiment [8] it was 72.4 µM (inactive); in experiment [9] it was 31.6 µM (inactive); in experiment [10] it was > 91 µM (inactive); in experiment [11], > 60.3 µM (inactive); in [12] it was > 100 µM (inactive). Besides, the GI50 in experiment [13] is 77.4 µM (inactive); in [14], > 100 µM (inactive); in [15] it was > 77.6 µM (inactive); in [16], 46.5 µM (inactive); in [17] it was > 52.5 µM (inactive); in experiment [18], > 50.4 µM (inactive).

As for `O=C1/C(=C/c2cccc([N+](=O)[O-])c2)Cc2ccccc21`, the GI50 was > 100 µM (inactive) in experiment [1]; 73.1 µM (inactive) in [2]; > 100 µM (inactive) in [3]; > 100 µM (inactive) in experiment [4]; 91.6 µM (inactive) in [5]; > 100 µM (inactive) in experiment [7]. In addition, the GI50 in [20] was > 100 µM (inactive); in experiment [8] it was 86.5 µM (inactive); in experiment [9], > 100 µM (inactive); in experiment [10] it was > 100 µM (inactive); in experiment [11] it was > 100 µM (inactive); in experiment [13] it was > 100 µM (inactive). Further, the GI50 was > 100 µM (inactive) in experiment [14], > 100 µM (inactive) in [15], 94.8 µM (inactive) in experiment [16] and > 100 µM (inactive) in experiment [17].

For the molecule `c1ccc2c(-c3csc(-c4c[nH]c5ccccc45)n3)c[nH]c2c1`, the GI50 in experiment [1] was > 100 µM (inactive); in [2], > 100 µM (inactive); in [3], > 65 µM (inactive); in experiment [4], > 100 µM (inactive); in experiment [5], 96.8 µM (inactive); in experiment [6], > 100 µM (inactive). The GI50 in experiment [7] is 39.4 µM (inactive); in experiment [20], > 100 µM (inactive); in [8] it was 14.9 µM (inactive); in experiment [10], > 100 µM (inactive); in experiment [11] it was > 100 µM (inactive); in experiment [12] it was > 100 µM (inactive). Further, the GI50 in experiment [13] was > 100 µM (inactive); in experiment [14], > 100 µM (inactive); in experiment [15], > 100 µM (inactive); in experiment [16], > 100 µM (inactive); in experiment [17], > 89.7 µM (inactive).
